In the NIST ThermoML archive (doi:10.1016/j.jct.2017.03.026):

Details: 101.33 kPa, Crystal, Small (less than 1 g) adiabatic calorimetry

O.O.O.O.O.O=S(=O)([O-])[O-].[Cu+2] [copper(II) sulfate pentahydrate]
Details	molar entropy [J/K/mol]
5 K	1.205
10 K	1.688
15 K	2.669
20 K	4.429
25 K	6.984
30 K	10.25
35 K	14.13
40 K	18.55
45 K	23.35
50 K	28.39
55 K	33.74
60 K	39.25
65 K	44.9
70 K	50.64
75 K	56.43
80 K	62.26
85 K	68.09
90 K	73.92
95 K	79.73
100 K	85.52
110 K	97.04
120 K	108.5
130 K	119.8
140 K	131
150 K	142.1
160 K	153.1
170 K	164
180 K	174.7
190 K	185.4
200 K	196
210 K	206.5
220 K	216.9
230 K	227.2
240 K	237.5
250 K	247.6
260 K	257.7
270 K	267.6
273.15 K	270.7
280 K	277.5
290 K	287.3
298.15 K	295.2
300 K	297
310 K	306.6
320 K	316.1
